“Also recorded” adds a separate entry of the source. Where a name gives a salt, the structure may show the parent alone.
How the values were obtained:
[1] = Stability of 5 kg lot of Form III at 25° C.±2° C., 60% RH±5% RH; assay type: physicochemical; conditions: stored at about 25° C. and about 60% RH, three months
Procedure: Example 6. Stability of 5 kg Lot of Form III at 25° C.±2° C., 60% RH±5% RH
These properties are advantageous for use in clinical trials or clinical use of the compound.

[2] = Stability of 5 kg lot of Form III at 40° C.±2° C., 75% RH±5% RH; assay type: physicochemical; conditions: 40° C. and 75% RH, three months
Procedure: Example 7. Stability of 5 kg Lot of Form III at 40° C.±2° C., 75% RH±5% RH
Further studies on the stability of Compound A Form III were conducted at elevated temperature and humidity. These conditions are less desirable for the storage of active pharmaceutical ingredients and may lead to accelerated degradation.

[3] = Stability of 0.1 kg lot of Form III under ambient conditions (15° C.-25° C., ambient RH); assay type: physicochemical; conditions: 12 months / one year
Procedure: Example 8. Stability of 0.1 kg Lot of Form III
Additional stability studies were performed for smaller lots of Compound A Form III. These studies were performed in stability chambers set to 25° C. and 60% RH, 40° C. and 75% RH for up to 8 weeks. In other embodiments the studies can be performed for up to 4 weeks, for up to 2 weeks and for one week. The stability studies were also performed under ambient conditions, 15-25° C. with no control over the humidity.

[4] = clinical trials; cited from earlier work
[5] = in vivo; cited from earlier work
SARS-CoV-2 = conditions: cited from earlier work
HCV = conditions: non-cirrhotic and cirrhotic HCV-infected patients, single and multiple doses; cited from earlier work

| SMILES | Absorption of water from the atmosphere upon storage [1] | Degradation measured by HPLC-UV [1] | Degradation (decrease in purity, generation of impurities) [2] | Decrease in purity [3] | Drug related serious adverse events [4] | Tissue concentration [5] | Potency against SARS-CoV-2 (SARS-CoV-2) | Antiviral reduction in HCV-infected cohorts (HCV) |
| --- | --- | --- | --- | --- | --- | --- | --- | --- |
| CNc1nc(N)nc2c1ncn2[C@@H]1O[C@H](CO[P@@](=O)(N[C@@H](C)C(=O)OC(C)C)Oc2ccccc2)[C@@H](O)[C@@]1(C)F [Compound A Form III, hemi-sulfate salt of isopropyl ((S)-(((2R,3R,4R,5R)-5-(2-amino-6-(methylamino)-9H-purin-9-yl)-4-fluoro-3-hydroxy-4-methyltetrahydrofuran-2-yl)methoxy)(phenoxy)phosphoryl)-L-alaninate] | does not appreciably absorb water | no measurable degradation | no measurable decrease in purity or generation of impurities; also recorded: no measurable degradation | little or no decrease; also recorded: no measurable decrease in purity |  |  |  |  |
| CNc1nc(N)nc2c1ncn2[C@@H]1O[C@H](CO[P@@](=O)(N[C@@H](C)C(=O)OC(C)C)Oc2ccccc2)[C@@H](O)[C@@]1(C)F [Compound A, hemi-sulfate salt of isopropyl ((S)-(((2R,3R,4R,5R)-5-(2-amino-6-(methylamino)-9H-purin-9-yl)-4-fluoro-3-hydroxy-4-methyltetrahydrofuran-2-yl)methoxy)(phenoxy)phosphoryl)-L-alaninate] |  |  |  |  | no drug related serious adverse events observed | disproportionately concentrate in the lung and the liver | potent | significant antiviral reduction |

From patent US12686697B2, “Advantageous morphic form of AT-527 hemi-sulfate salt” (Atea Pharmaceuticals, Inc., priority 2021, dated 2026)
